Test results reported in patent publication US20150087616A1, “PREBIOTIC FORMULATIONS AND METHODS OF USE” (RITTER PHARMACEUTICALS, INC., priority 2011, published 2015).

Test system: Bifidobacterium species
Assay: Comparative growth of Bifidobacterium species in scratch MRS with 2% carbohydrate
Assay type: cell-based
Details: five (four) Bifidobacterium species; scratch MRS + 2% carbohydrate
Experimental: The objective of the study was to determine the ability of various Bifidobacterium species and strains to grow on galactooligosaccharides.
The growth of Lactobacillus and Bifidobacterium strains was evaluated in scratch MRS (Table 16) supplemented with 2% of a carbohydrate solution. The carbohydrates used in the experiments were: Glucose—Fisher; Lactose—Fisher; GOS1—95% GOS purity from Inalco SPA—Provided by Ritter Pharmaceuticals; GOS2—90% GOS purity from GTC—provided by Ritter Pharmaceuticals.
Carbohydrate stock solutions were filter sterilized and then added to either a scratch MRS formulation (Table 16), or a semisynthetic medium (Table 17).
Lactobacillus and Bifidobacterium cultures were propagated in MRS broth overnight, and then transferred once through the test medium. For growth experiments, cultures were inoculated into the MRS scratch medium containing one of the 4 carbohydrates to be examined Growth was monitored either: **automatically, using a FLUOStar OPTIMA microtiter plate reader to monitor the change in absorbance (A600) as a function of the time. The strains were incubated at 37 C aerobically for these experiments; or ** manually, using a standard spectrophotometer to monitor the change in OD600 nm over time, in 5 ml liquid culture tubes. These cultures were incubated anaerobically at 37° C. in a COY anaerobic chamber, flushed with anaerobic gas. […]

OC[C@H]1O[C@@H](O[C@H]2[C@H](O)[C@@H](O)C(O)O[C@@H]2CO)[C@H](O)[C@@H](O)[C@H]1O (stereo partly shown) [lactose, Lactose]
comparative growth on four carbohydrate sources (glucose, lactose, GOS1, GOS2): none of the Bifidobacterium strains used in these experiments grew
